Patent US8492395B2, “7-substituted quinazolinone compounds and compositions comprising the same” (Celgene Corporation, priority 2007, dated 2013)

How the values were obtained:
Namalwa AG4 cells = experiment: Cell proliferation assay (3H-thymidine incorporation); format: cell-based; conditions: one collective range stated for the tested compounds, read-out: IC50 values for inhibiting proliferation of Namalwa AG4 cells
Experimental: 5.48.3 Cell Proliferation Assay
Cell lines Namalwa, MUTZ-5, and UT-7 are obtained from the Deutsche Sammlung von Mikroorganismen und Zellkulturen GmbH (Braunschweig, Germany). The cell line KG-1 is obtained from the American Type Culture Collection (Manassas, Va., USA). Cell proliferation as indicated by ^3H-thymidine incorporation is measured in all cell lines as follows.
Cells are plated in 96-well plates at 6000 cells per well in media. The cells are pre-treated with compounds at about 100, 10, 1, 0.1, 0.01, 0.001, 0.0001 and 0 μM in a final concentration of about 0.25% DMSO in triplicate at 37° C. in a humidified incubator at 5% CO2 for 72 hours. One microcurie of 3H-thymidine (Amersham) is then added to each well, and cells are incubated again at 37° C. in a humidified incubator at 5% CO2 for 6 hours. The cells are harvested onto UniFilter GF/C filter plates (Perkin Elmer) using a cell harvester (Tomtec), and the plates are allowed to dry overnight. Microscint 20 (Packard) (25 μl/well) is added, and plates are analyzed in TopCount NXT (Packard). Each well is counted for one minute. Percent inhibition of cell proliferation is calculated by averaging all triplicates and normalizing to the DMSO control (0% inhibition). Each compound is tested in each cell line in three separate experiments. Final IC50s are calculated using non-linear regression, sigmoidal dose-response, constraining the top to 100% and bottom to 0%, allowing variable slope. (GraphPad Prism v3.02).
Abilities of certain compounds for inhibiting proliferation of Namalwa AG4 cells were determined using procedures substantially similar to those described in Section 5.48.3, above.

IL-2 = IL-2 production by T cells (anti-CD3 stimulated, ELISA); format: cell-based; conditions: T-cell, one collective range stated for the tested compounds, read-out: EC50 values for stimulating the production of IL-2
Experimental: 5.48.2 […] and MIP-3α Production by T Cells
PBMC are depleted of adherent monocytes by placing 1×10^8 PBMC in 10 ml complete medium (RPMI 1640 supplemented with 10% heat-inactivated fetal bovine serum, 2 mM L-glutamine, 100 U/ml penicillin, and 100 μg/ml streptomycin) per 10 cm tissue culture dish, in 37° C., 5% CO2 incubator for 30-60 minutes. The dish is rinsed with medium to remove all non-adherent PBMC. T cells are purified by negative selection using the following antibody (Pharmingen) and Dynabead (Dynal) mixture for every 1×10^8 non-adherent PBMC: 0.3 ml Sheep anti-mouse IgG beads, 15 μl anti-CD16, 15 μl anti-CD33, 15 μl anti-CD56, 0.23 ml anti-CD19 beads, 0.23 ml anti-HLA class II beads, and 56 μl anti-CD14 beads. The cells and bead/antibody mixture is rotated end-over-end for 30-60 minutes at 4° C. Purified T cells are removed from beads using a Dynal magnet. Typical yield is about 50% T cells, 87-95% CD3^+ by flow cytometry.
Tissue culture 96-well flat-bottom plates are coated with anti-CD3 antibody OKT3 at 5 μg/ml in PBS, 100 μl per well, incubated at 37° C. for 3-6 hours, then washed four times with complete medium 100 μl/well just before T cells are added. Compounds are diluted to 20 times of final in a round bottom tissue culture 96-well plate. Final concentrations are about 10 μM to about 0.00064 μM. A 10 mM stock of compounds provided herein is diluted 1:50 in complete for the first 20× dilution of 200 μM in 2% DMSO and serially diluted 1:5 into 2% DMSO. Compound is added at 10 μl per 200 μl culture, to give a final DMSO concentration of 0.1%. Cultures are incubated at 37° C., 5% CO2 for 2-3 days, and supernatants analyzed for IL-2 and MIP-3α by ELISA (R&D Systems). IL-2 and MIP-3 cc levels are normalized to the amount produced in the presence of an amount of a compound provided herein, and EC50s calculated using non-linear regression, sigmoidal dose-response, constraining the top to 100% and bottom to 0%, allowing variable slope (GraphPad Prism v3.02).
Abilities of certain compounds for stimulating the production of IL-2 were determined using procedures substantially similar to those described in Section 5.48.2, above.

| EC50 (IL-2) [µM] | melting point [°C] | Structure (SMILES) | IC50 (Namalwa AG4 cells) [µM] |
| --- | --- | --- | --- |
| 0.1 to 3.5 |  | Cc1nc2cc(Br)ccc2c(=O)n1C1CCC(=O)NC1=O (centres unmarked) [3-(7-bromo-2-methyl-4-oxo-4H-quinazolin-3-yl)-piperidine-2,6-dione] | 0.01 to 5.5 |
| 0.1 to 3.5 |  | Cc1nc2ccc(N)cc2c(=O)n1C1CCC(=O)NC1=O (centres unmarked) [3-(6-amino-2-methyl-4-oxo-4H-quinazolin-3-yl)-piperidine-2,6-dione] | 0.01 to 5.5 |
| 0.1 to 3.5 | 315 to 317 | Cc1nc2ccc(O)cc2c(=O)n1C1CCC(=O)NC1=O (centres unmarked) [3-(6-hydroxy-2-methyl-4-oxo-4H-quinazolin-3-yl)-piperidine-2,6-dione] |  |
| 0.1 to 3.5 | 291 to 293 | Cc1nc2cc(Cl)ccc2c(=O)n1C1CCC(=O)NC1=O (centres unmarked) [3-(7-chloro-2-methyl-4-oxo-4H-quinazolin-3-yl)-piperidine-2,6-dione] | 0.01 to 5.5 |
| 0.1 to 3.5 | 220 to 222 | CCCCCCNC(=O)NCc1ccc2nc(C)n(C3CCC(=O)NC3=O)c(=O)c2c1 (centres unmarked) [1-[3-(2,6-dioxo-piperidin-3-yl)-2-methyl-4-oxo-3,4-dihydro-quinazolin-6-ylmethyl]-3-hexyl-urea] | 0.01 to 5.5 |
| 0.1 to 3.5 | 201 to 203 | Cc1nc2ccc(CNC(=O)Nc3ccc(OC(F)(F)F)cc3)cc2c(=O)n1C1CCC(=O)NC1=O (centres unmarked) [1-[3-(2,6-dioxo-piperidin-3-yl)-2-methyl-4-oxo-3,4-dihydro-quinazolin-6-ylmethyl]-3-(4-trifluoromethoxy-phenyl)-urea] | 0.01 to 5.5 |
| 0.1 to 3.5 | 243 to 245 | Cc1nc2cc(F)ccc2c(=O)n1C1CCC(=O)NC1=O (centres unmarked) [3-(7-fluoro-2-methyl-4-oxo-4H-quinazolin-3-yl)-piperidine-2,6-dione] | 0.01 to 5.5 |
| 0.1 to 3.5 |  | Cc1nc2cc(N)ccc2c(=O)n1C1CCC(=O)NC1=O (centres unmarked) [3-(7-amino-2-methyl-4-oxo-4H-quinazolin-3-yl)-piperidine-2,6-dione] | 0.01 to 5.5 |
